From patent US20240228499A1, “MASP-2 INHIBITORS AND METHODS OF USE” (Omeros Corporation, priority 2022, published 2024)
Counter-ions that a name gives are not always drawn.

How the values were obtained:
MASP-2 (CCP1-CCP2-SP) = target: T1, MASP-2 (CCP1-CCP2-SP) (Homo sapiens, UniProt O00187); test: Enzymatic assay for MASP-2 inhibitory activity (fluorogenic substrate); format: biochemical; settings: room temperature, 20 mM Hepes pH 7.4, 20 min
T1 construct: 15 μL of Enzyme MASP-2 (CCP1-CCP2-SP) in Assay Buffer
Method: The MASP-2 assay utilizes a fluorogenic substrate, based on the cleavage site for its natural substrate C2. The assay was run at room temperature in an assay buffer containing 20 mM HEPES, pH 7.4, 140 mM NaCl and 0.1% Tween 20. Assay parameters were adjusted such that the assay was linear with respect to time, enzyme, and substrate concentrations. Under the optimized assays conditions, IC50 values were equivalent to Ki values, except in the few cases of “tight binding” inhibitors. Cases of “tight binding” or possible “slow binding” inhibitors were handled by the methods described in Copeland R. A. (2013) Evaluation of Enzyme Inhibitors in Drug Discovery. 2nd Ed., John Wiley and Sons, Inc., Chapters 5-7.
The MASP-2 assay protocol was carried out as follows. Test compounds were serially diluted in DMSO and then 100 nL of each dilution was transferred to the assay plate(s). 10 μL of Assay Buffer was added, followed by 15 μL of Enzyme MASP-2 (CCP1-CCP2-SP) in Assay Buffer. 15 μL of Substrate in Assay Buffer was then added and the mixture was mixed to start the reaction. After 20 min at room temperature, 15 μL of a stop solution (0.1 M acetic acid) was added, the sample was mixed, and the plates were read on a SpectraMax i3× Microplate Reader with the data exported as an Excel file. Each assay plate included a “no inhibitor” (DMSO only) control, a “no enzyme” control, and a reference inhibitor control. % Activity values=100*(average test comp. fluorescence−average “no enzyme” fluorescence)/(average “DMSO only” fluorescence−average “no enzyme” fluorescence). IC50 and Ki replicate values were very reproducible, with values well within +2-fold.

human a-thrombin = target: T2, human a-thrombin (Homo sapiens, UniProt P00734); test: Enzymatic assay for thrombin (fluorogenic peptide substrate Boc-VPR-AMC); format: biochemical; settings: room temperature, 20 mM Hepes pH 7.4, 20 min
T2 construct: enzyme (human a-thrombin (BioPharm® Lab.)); purchased BioPharm Lab
Method: The thrombin assay utilizes a fluorogenic peptide substrate (Boc-VPR-AMC (R&D Systems) and was run at room temperature in an assay buffer containing 20 mM Hepes, pH 7.4, 140 mM NaCl and 0.1% Tween 20. Assay parameters were adjusted such that the assay was linear with respect to time, enzyme, and substrate concentrations. Under these optimized assays conditions, IC50 values were equivalent to Ki values, except in a few cases of “tight binding” inhibitors. Cases of “tight binding” or possible “slow binding” inhibitors were handled by the methods described in Copeland R.A. (2013) Evaluation of Enzyme Inhibitors in Drug Discovery. 2nd Ed. John Wiley and Sons, Inc., Chapters 5-7.
The thrombin assay protocol was carried out as follows. Test compounds were serially diluted in DMSO and then 100 nL of each dilution was transferred to the assay plate(s). 10 μL of Assay Buffer was added, followed by 15 μL of enzyme (human a-thrombin (BioPharm® Lab.)) in assay buffer. 15 μL of substrate in assay buffer was then added and the sample mixed to start the reaction. After 20 min at room temperature, 15 μL of a stop solution (0.1 M acetic acid) was added, the sample was mixed, and the plates were read on a SpectraMax® i3× Microplate Reader with the data exported as Excel files. Each assay plate included a “no inhibitor” (DMSO only) control, a “no enzyme” control, and a reference inhibitor control. % Activity values=100*(ave. test comp. fluorescence−ave. “no enz” fluorescence)/(ave. “DMSO only” fluorescence−ave. “no enz” fluorescence). IC50 and Ki values were very reproducible, with values falling well within +2-fold.

T1 sequence (O00187 287-686 limits assumed): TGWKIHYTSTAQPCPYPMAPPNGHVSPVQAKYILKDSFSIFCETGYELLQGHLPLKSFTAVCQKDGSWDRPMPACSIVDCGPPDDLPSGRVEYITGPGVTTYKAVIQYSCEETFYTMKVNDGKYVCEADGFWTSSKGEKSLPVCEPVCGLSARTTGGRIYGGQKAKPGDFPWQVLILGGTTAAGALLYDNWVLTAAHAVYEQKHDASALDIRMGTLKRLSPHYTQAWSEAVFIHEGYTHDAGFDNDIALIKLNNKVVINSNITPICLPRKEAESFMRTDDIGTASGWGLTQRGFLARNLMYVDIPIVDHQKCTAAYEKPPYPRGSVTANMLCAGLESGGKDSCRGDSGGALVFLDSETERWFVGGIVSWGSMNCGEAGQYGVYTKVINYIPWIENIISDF

Structure (SMILES) | Ki (MASP-2 (CCP1-CCP2-SP)) [nM] | Ki (human a-thrombin) [nM]
Cc1cc(C)cc(CNc2cnc3n(c2=O)[C@H](C(=O)NCc2cc4cnccc4[nH]2)CC3)c1 [Compound 6, (S)—N-((1H-pyrrolo[3,2-c]pyridin-2-yl)methyl)-3-((3,5-dimethylbenzyl)amino)-4-oxo-4,6,7,8-tetrahydropyrrolo[1,2-a]pyrimidine-6-carboxamide] | < 500 | 2500 to 10000
Cc1nc(N)ccc1CNC(=O)[C@@H]1CCc2ncc(NCc3ccccc3F)c(=O)n21 [Compound 68] | < 500 | 2500 to 10000
Cc1nc(N)ccc1CNC(=O)[C@@H]1CCc2ncc(NCc3ccc4c(c3)OC(F)(F)O4)c(=O)n21 [Compound 12, (S)—N-((6-amino-2-methylpyridin-3-yl)methyl)-3-(((2,2-difluorobenzo[D][1,3]dioxol-5-yl)methyl)amino)-4-oxo-4,6,7,8-tetrahydropyrrolo[1,2-a]pyrimidine-6-carboxamide, trifluoroacetate] | < 500 | 2500 to 10000
Cc1cc(C#N)cc(CNc2cnc3n(c2=O)[C@H](C(=O)NCc2ccc(N)nc2C)CC3)c1 [Compound 8, (S)—N-((6-amino-2-methylpyridin-3-yl)methyl)-3-((3-cyano-5-methylbenzyl)amino)-4-oxo-4,6,7,8-tetrahydropyrrolo[1,2-a]pyrimidine-6-carboxamide] | < 500 | 500 to 2500
Cc1cccc(C(C)Nc2cnc3n(c2=O)[C@H](C(=O)NCc2cc4c(s2)CNC4)CC3)c1 (single isomer, unassigned) [Compound 70, di-trifluoroacetate] | < 500 | 10000 to 25000
Cc1cc(CNc2cnc3n(c2=O)[C@H](C(=O)NCc2ccc(N)nc2C)CC3)cc(C(F)(F)F)c1 [Compound 29, (S)-N-((6-amino-2-methylpyridin-3-yl)methyl)-3-((3-methyl-5-(trifluoromethyl)benzyl)amino)-4-oxo-4,6,7,8-tetrahydro-pyrrolo[1,2-a]pyrimidine-6-carboxamide, di-trifluoroacetate] | < 500 | 500 to 2500
Cc1nc(N)ccc1CNC(=O)[C@@H]1CCc2ncc(NCc3ccccc3)c(=O)n21 [Compound 59] | < 500 | 2500 to 10000
Cc1cccc(CNc2cnc3n(c2=O)[C@H](C(=O)NCc2ccc(N)nc2C)CC3)c1 [Compound 60, (S)—N-((6-amino-2-methylpyridin-3-yl)methyl)-3-((3-methylbenzyl)amino)-4-oxo-4,6,7,8-tetrahydropyrrolo[1,2-a]pyrimidine-6-carboxamide] | < 500 | 500 to 2500
Cc1cccc(C(C)Nc2cnc3n(c2=O)[C@H](C(=O)NCc2cc4c(s2)CNC4)CC3)c1 (single isomer, unassigned) [Compound 69, di-trifluoroacetate] | < 500 | 500 to 2500
Cc1nc(N)ccc1CNC(=O)[C@@H]1CCc2ncc(NCc3cccc(-n4cccn4)c3)c(=O)n21 [Compound 40, (S)-3-((3-(1H-pyrazol-1-yl)benzyl)amino)-N-((6-amino-2-methylpyridin-3-yl)methyl)-4-oxo-4,6,7,8-tetrahydropyrrolo[1,2-a]pyrimidine-6-carboxamide, trifluoroacetate] | < 500 | 500 to 2500
CC(=O)c1cccc(CNc2cnc3n(c2=O)[C@H](C(=O)N[C@@H]2CCc4nc(N)ccc42)CC3)c1 [Compound 104] | < 500 | 500 to 2500
Cc1cc(C)cc(CNc2cnc3n(c2=O)[C@H](C(=O)NCc2cncc(Cl)c2)CC3)c1 [Compound 17, (S)—N-((5-chloropyridin-3-yl)methyl)-3-((3,5-dimethylbenzyl)amino)-4-oxo-4,6,7,8-tetrahydropyrrolo[1,2-a]pyrimidine-6-carboxamide, trifluoroacetate] | < 500 | < 500
COc1cc(Cl)cc(CNc2cnc3n(c2=O)[C@H](C(=O)N[C@@H]2CCc4nc(N)ccc42)CC3)c1 [Compound 87, (S)-N-((R)-2-amino-6,7-dihydro-5H-cyclopenta[b]pyridin-5-yl)-3-((3-chloro-5-methoxybenzyl)amino)-4-oxo-4,6,7,8-tetrahydro-pyrrolo[1,2-a]pyrimidine-6-carboxamide] | < 500 | < 500
Nc1ccc2c(n1)CC[C@H]2NC(=O)[C@@H]1CCc2ncc(NCc3cccc(-c4ccccc4)c3)c(=O)n21 [Compound 102] | < 500 | 10000 to 25000
Cc1cccc(CNc2cnc3n(c2=O)[C@H](C(=O)NCc2ccc(N)nc2C)CC3)c1F [Compound 33, (S)-N-((6-amino-2-methylpyridin-3-yl)methyl)-3-((2-fluoro-3-methylbenzyl)amino)-4-oxo-4,6,7,8-tetrahydropyrrolo[1,2-a]pyrimidine-6-carboxamide, di-trifluoroacetate] | < 500 | 500 to 2500
Nc1ccc2c(n1)CC[C@H]2NC(=O)[C@@H]1CCc2ncc(NCc3cccc(F)c3)c(=O)n21 [Compound 101] | < 500 | 500 to 2500
Cc1nc(N)ccc1CNC(=O)[C@@H]1CCc2ncc(NCc3cc(F)cc(C(F)(F)F)c3)c(=O)n21 [Compound 47, (S)-N-((6-amino-2-methylpyridin-3-yl)methyl)-3-((3-fluoro-5-(trifluoromethyl)benzyl)amino)-4-oxo-4,6,7,8-tetrahydro-pyrrolo[1,2-a]pyrimidine-6-carboxamide, di-trifluoroacetate] | < 500 | 500 to 2500
COc1c(F)ccc(F)c1CNc1cnc2n(c1=O)[C@H](C(=O)NCc1ccc(N)nc1C)CC2 [Compound 36, (S)-N-((6-amino-2-methylpyridin-3-yl)methyl)-3-((3,6-difluoro-2-methoxybenzyl)amino)-4-oxo-4,6,7,8-tetrahydropyrrolo[1,2-a]pyrimidine-6-carboxamide, di-trifluoroacetate] | < 500 | 2500 to 10000
Cc1ccc(F)cc1CNc1cnc2n(c1=O)[C@H](C(=O)NCc1ccc(N)nc1C)CC2 [Compound 31, (S)-N-((6-amino-2-methylpyridin-3-yl)methyl)-3-((5-fluoro-2-methylbenzyl)amino)-4-oxo-4,6,7,8-tetrahydropyrrolo[1,2-a]pyrimidine-6-carboxamide, di-trifluoroacetate] | < 500 | 500 to 2500
Nc1ccc2c(n1)CC[C@H]2NC(=O)[C@@H]1CCc2ncc(NCc3cccc(CO)c3)c(=O)n21 [Compound 103] | < 500 | 2500 to 10000
Cc1cc(Cl)cc(CNc2cnc3n(c2=O)[C@H](C(=O)N[C@@H]2CCc4nc(N)ccc42)CC3)c1 [Compound 83, (S)—N—((R)-2-amino-6,7-dihydro-5H-cyclopenta[b]pyridin-5-yl)-3-((3-chloro-5-methylbenzyl)amino)-4-oxo-4,6,7,8-tetrahydropyrrolo[1,2-a]pyrimidine-6-carboxamide] | < 500 | < 500
Cc1nc(N)ccc1CNC(=O)[C@@H]1CCc2ncc(NCc3cc(F)ccc3F)c(=O)n21 [Compound 28, (S)-N-((6-amino-2-methylpyridin-3-yl)methyl)-3-((2,5-difluorobenzyl)amino)-4-oxo-4,6,7,8-tetrahydropyrrolo[1,2-a]pyrimidine-6-carboxamide, di-trifluoroacetate] | < 500 | 500 to 2500
COc1c(C)cccc1CNc1cnc2n(c1=O)[C@H](C(=O)NCc1ccc(N)nc1C)CC2 [Compound 10, (S)—N-((6-amino-2-methylpyridin-3-yl)methyl)-3-((2-methoxy-3-methylbenzyl)amino)-4-oxo-4,6,7,8-tetrahydropyrrolo[1,2-a]pyrimidine-6-carboxamide, trifluoroacetate] | < 500 | 500 to 2500
